From patent EP0419292A1, “Human tryptase-like protein” (TAISHO PHARMACEUTICAL CO. LTD, priority 1989, dated 1991)
“Also recorded” adds a separate entry of the source. Starred links: 1 amine or outer side, 2 acyl side, 3 side chain; linkers in the order of their positions; H or OH if unused. Non-standard residues stand in square brackets, D forms with d. Residues, ends and D or L forms follow the SMILES beside them. *: point of attachment. Sta = CC(C)C[C@H](N)[C@@H](O)CC(=O)O; Glutaryl = O=C(CCCC(=O)[*:2])[*:1]; AMC = Cc1cc(=O)oc2cc(N*)ccc12; Suc = O=C(CCC(=O)[*:2])[*:1]; Isovaleryl = CC(C)CC(=O)*; Boc = CC(C)(C)OC(=O)*

How the values were obtained:
[1] = system: human tryptase-like protein; test: Effects of inhibitors on the trypsin-like activity; assay type: biochemical; conditions: 10 µM inhibitor; for Inhibition (%) / Activity: substrate Boc-Gln-Gly-Arg-MCA; for Activity: control 843.1
Procedure: (§1) Enzyme activity of the human tryptase-like protein during the course of purification or after purification was measured as follows. The enzyme sample was added to 0.1 M Tris-HCl buffer (pH 7.8) containing 25 mM calcium chloride and 100 µM of fluorogenic substrate. The fluorescence was measured with excitation and emmision wavelength of 380 nm and 460 nm, respectively.
Effects of inhibitors on the trypsin-like activity of the human tryptase-like protein was examined using Boc-Gln-Gly-Arg-MCA as substrate.

[2] = system: human tryptase-like protein; test: Enzyme activity with fluorogenic substrates (substrate specificity); assay type: biochemical; conditions: for Activity: Substrate 100 µM, 0.1 M Tris-HCl pH 7.8, 25 mM calcium chloride; for %: activity relative to Boc-Gln-Gly-Arg-MCA (100), substrate 100 µM; for hydrolysis by human tryptase-like protein: trypsin-like or chymotrypsin-like activity
Procedure: as §1, with “respectively. Effects of inhibitors on the enzyme activity were examined by adding 10 µM each of inhibitor to the reaction solution described above.” for “respectively.”

| Compound | Activity [2] | % [2] | Inhibition (%) [1] | Activity [1] | hydrolysis by human tryptase-like protein [2] | inhibition of trypsin-like activity [1] |
| --- | --- | --- | --- | --- | --- | --- |
| CC(C)C[C@@H](N)[C@H](O)C(=O)N[C@H](C(=O)N[C@H](C(=O)N[C@@H](CC(=O)O)C(=O)O)C(C)C)C(C)C [Amastatin] | – | – | 9% | 767.2 µU/ml | – | – |
| N=C(N)c1ccccc1 [Benzamidine] | – | – | 3% | 817.8 µU/ml | – | – |
| CC(C)C[C@H](NC(=O)[C@@H](O)[C@H](N)Cc1ccccc1)C(=O)O [Bestatin] | – | – | 0% | 843.0 µU/ml | – | – |
| CC(C)C[C@H](NC(=O)[C@@H](NC(=O)N[C@@H](Cc1ccccc1)C(=O)O)[C@@H]1CCN=C(N)N1)C(=O)N[C@H](C=O)Cc1ccccc1 [Chymostatin] | – | – | 47% | 443.8 µU/ml | – | inhibited |
| CC(C)CCNC(=O)[C@H](CC(C)C)NC(=O)[C@H]1O[C@@H]1C(=O)O [E-64c] | – | – | 11% | 754.4 µU/ml | – | – |
| CC(C)C[C@H](NC(=O)N[C@H](C(=O)N[C@@H](CCC(N)=O)C(=O)N[C@@H](C)C=O)[C@@H]1CCNC(=N)N1)C(=O)O [Elastatinal] | – | – | 16% | 710.0 µU/ml | – | – |
| CC(=O)N[C@@H](CC(C)C)C(=O)N[C@@H](CC(C)C)C(=O)N[C@H](C=O)CCCNC(=N)N [Leupeptin] | – | – | 87% | 110.9 µU/ml | – | inhibited; also recorded: strongly inhibited |
| O=S(=O)(F)Cc1ccccc1 [PMSF, phenylmethylsulfonyl fluoride] | – | – | 13% | 732.2 µU/ml | – | – |
| CC(C)CC(=O)N[C@H](C(=O)N[C@H](C(=O)N[C@@H](CC(C)C)[C@@H](O)CC(=O)N[C@@H](C)C(=O)N[C@@H](CC(C)C)[C@@H](O)CC(=O)O)C(C)C)C(C)C [Pepstatin] (Isovaleryl-VV[Sta]A[Sta]-OH) | – | – | 0% | 845.0 µU/ml | – | – |
| CC(C)C[C@H](NP(=O)(O)O[C@@H]1O[C@@H](C)[C@H](O)[C@@H](O)[C@H]1O)C(=O)N[C@@H](Cc1c[nH]c2ccccc12)C(=O)O [Phosphoramidone] | – | – | 3% | 820.9 µU/ml | – | – |
| Cc1cc(=O)oc2cc(NC(=O)[C@H](Cc3ccccc3)NC(=O)[C@@H]3CCCN3C(=O)[C@H](C)NC(=O)[C@H](C)NC(=O)CCC(=O)O)ccc12 [Suc-Ala-Ala-Pro-Phe-MCA] (Suc-AAPF-{AMC}) | 110.9 µU/ml | 15% | – | – | – | – |
| Cc1cc(=O)oc2cc(NC(=O)[C@H](Cc3ccc(O)cc3)NC(=O)[C@@H](NC(=O)[C@H](CC(C)C)NC(=O)[C@H](CC(C)C)NC(=O)CCC(=O)O)C(C)C)ccc12 [Suc-Leu-Leu-Val-Tyr-MCA] (Suc-LLVY-{AMC}) | 244.1 µU/ml | 32% | – | – | cleaves; also recorded: hydrolized most rapidly | – |
| Cc1ccc(S(=O)(=O)N[C@@H](CCCCN)C(=O)CCl)cc1 [TLCK, Nα-p-tosyl-L-lysine chloromethyl ketone] | – | – | 18% | 691.3 µU/ml | – | – |
| N-tosyl-L-phenylalanine chloromethyl ketone [TPCK] | – | – | 16% | 708.2 µU/ml | – | – |

More lines, main results first:

| Activity [2] | % [2] | Compound | Inhibition (%) [1] | Activity [1] | hydrolysis by human tryptase-like protein [2] | inhibition of trypsin-like activity [1] |
| --- | --- | --- | --- | --- | --- | --- |
| 199.7 µU/ml | 26% | Cc1cc(=O)oc2cc(NC(=O)[C@H](CCCNC(=N)N)NC(=O)[C@@H]3CCCN3C(=O)CNC(=O)[C@H](C)NC(=O)OC(C)(C)C)ccc12 [Boc-Ala-Gly-Pro-Arg-MCA] (Boc-AGPR-{AMC}) | – | – | – | – |
| 532.4 µU/ml | 71% | Cc1cc(=O)oc2cc(NC(=O)[C@H](CCCNC(=N)N)NC(=O)[C@H](C)NC(=O)[C@H](CCC(N)=O)NC(=O)OC(C)(C)C)ccc12 [Boc-Gln-Ala-Arg-MCA] (Boc-Gln-Ala-Arg-{AMC}) | – | – | – | – |
| 177.5 µU/ml | 24% | Cc1cc(=O)oc2cc(NC(=O)[C@H](CCCNC(=N)N)NC(=O)[C@H](CCCNC(=N)N)NC(=O)[C@H](CCC(N)=O)NC(=O)OC(C)(C)C)ccc12 [Boc-Gln-Arg-Arg-MCA] (Boc-Gln-Arg-Arg-{AMC}) | – | – | – | – |
| 754.4 µU/ml | 100% | Cc1cc(=O)oc2cc(NC(=O)[C@H](CCCNC(=N)N)NC(=O)CNC(=O)[C@H](CCC(N)=O)NC(=O)OC(C)(C)C)ccc12 [Boc-Gln-Gly-Arg-MCA] (Boc-Gln-Gly-Arg-{AMC}) | – | – | cleaves; also recorded: hydrolyzed most rapidly | – |
| 221.9 µU/ml | 29% | Cc1cc(=O)oc2cc(NC(=O)[C@H](CCCCN)NC(=O)[C@H](CCCCN)NC(=O)[C@H](CCC(=O)O)NC(=O)OC(C)(C)C)ccc12 [Boc-Glu-Lys-Lys-MCA] (Boc-Glu-Lys-Lys-{AMC}) | – | – | – | – |
| 44.4 µU/ml | 6% | Cc1cc(=O)oc2cc(NC(=O)[C@H](CCCNC(=N)N)NC(=O)[C@H](CCCNC(=N)N)NC(=O)CNC(=O)OC(C)(C)C)ccc12 [Boc-Gly-Arg-Arg-MCA] | – | – | – | – |
| 177.5 µU/ml | 24% | Cc1cc(=O)oc2cc(NC(=O)[C@H](CCCNC(=N)N)NC(=O)[C@H](CCCCN)NC(=O)CNC(=O)OC(C)(C)C)ccc12 [Boc-Gly-Lys-Arg-MCA] (Boc-Gly-Lys-Arg-{AMC}) | – | – | – | – |
| 355.0 µU/ml | 47% | CC[C@H](C)[C@H](NC(=O)OC(C)(C)C)C(=O)N[C@@H](CCC(=O)O)C(=O)NCC(=O)N[C@@H](CCCNC(=N)N)C(=O)Nc1ccc2c(C)cc(=O)oc2c1 [Boc-Ile-Glu-Gly-Arg-MCA] (Boc-IEGR-{AMC}) | – | – | – | – |
| 110.9 µU/ml | 15% | Cc1cc(=O)oc2cc(NC(=O)[C@H](CCCNC(=N)N)NC(=O)[C@H](CCCNC(=N)N)NC(=O)[C@H](CC(C)C)NC(=O)OC(C)(C)C)ccc12 [Boc-Leu-Arg-Arg-MCA] (Boc-Leu-Arg-Arg-{AMC}) | – | – | – | – |
| 110.9 µU/ml | 15% | Cc1cc(=O)oc2cc(NC(=O)[C@H](CCCNC(=N)N)NC(=O)[C@@H](NC(=O)[C@H](CC(C)C)NC(=O)OC(C)(C)C)[C@@H](C)O)ccc12 [Boc-Leu-Thr-Arg-MCA] (Boc-Leu-Thr-Arg-{AMC}) | – | – | – | – |
| 177.5 µU/ml | 24% | Cc1cc(=O)oc2cc(NC(=O)[C@H](CCCNC(=N)N)NC(=O)[C@H](CO)NC(=O)[C@H](Cc3ccccc3)NC(=O)OC(C)(C)C)ccc12 [Boc-Phe-Ser-Arg-MCA] (Boc-Phe-Ser-Arg-{AMC}) | – | – | – | – |
| 66.6 µU/ml | 9% | Cc1cc(=O)oc2cc(NC(=O)[C@H](CCCNC(=N)N)NC(=O)[C@@H]3CCCN3C(=O)[C@@H](NC(=O)OC(C)(C)C)C(C)C)ccc12 [Boc-Val-Pro-Arg-MCA] (Boc-Val-Pro-Arg-{AMC}) | – | – | – | – |
| 332.8 µU/ml | 44% | Cc1cc(=O)oc2cc(NC(=O)[C@H](CCCNC(=N)N)NC(=O)CNC(=O)CCCC(=O)O)ccc12 [Glt-Gly-Arg-MCA] (Glutaryl-Gly-Arg-{AMC}) | – | – | – | – |
| 155.3 µU/ml | 21% | Cc1cc(=O)oc2cc(NC(=O)[C@H](CCCNC(=N)N)NC(=O)[C@H](Cc3ccccc3)NC(=O)[C@@H]3CCCN3)ccc12 [Pro-Phe-Arg-MCA] (H-Pro-Phe-Arg-{AMC}) | – | – | – | – |
